biological target: T1, DPP-IV (Homo sapiens, UniProt P27487); assay: Continuous fluorimetric assay of inhibition of DPP-IV peptidase activity (cleavage of Gly-Pro-AMC); format: biochemical; conditions: substrate Gly-Pro-AMC 16 μM, pH 7.4, 25° C., 1% DMSO
T1 construct: Soluble human DPP-IV lacking the transmembrane anchor (Gly31-Pro766); Pre-Pro-alpha-mating factor leader (secretion fusion) (N, cleaved yes); made in house
Description: Inhibition of DPP-IV peptidase activity was monitored with a continuous fluorimetric assay. This assay is based on the cleavage of the substrate Gly-Pro-AMC (Bachem) by DPP-IV, releasing free AMC. The assay is carried out in 96-well microtiterplates. In a total volume of 100 μL, compounds are preincubated with […] DPP-IV employing a buffer containing 10 mM Hepes, 150 mM NaCl, 0.005% Tween 20 (pH 7.4). […] The final concentration of DMSO is 1%. The inhibitory potential of the compounds were determined.
Soluble human DPP-IV lacking the transmembrane anchor (Gly31-Pro766) was expressed in a recombinant YEAST-strain as Pre-Pro-alpha-mating fusion.

T1 sequence (P27487 31-766): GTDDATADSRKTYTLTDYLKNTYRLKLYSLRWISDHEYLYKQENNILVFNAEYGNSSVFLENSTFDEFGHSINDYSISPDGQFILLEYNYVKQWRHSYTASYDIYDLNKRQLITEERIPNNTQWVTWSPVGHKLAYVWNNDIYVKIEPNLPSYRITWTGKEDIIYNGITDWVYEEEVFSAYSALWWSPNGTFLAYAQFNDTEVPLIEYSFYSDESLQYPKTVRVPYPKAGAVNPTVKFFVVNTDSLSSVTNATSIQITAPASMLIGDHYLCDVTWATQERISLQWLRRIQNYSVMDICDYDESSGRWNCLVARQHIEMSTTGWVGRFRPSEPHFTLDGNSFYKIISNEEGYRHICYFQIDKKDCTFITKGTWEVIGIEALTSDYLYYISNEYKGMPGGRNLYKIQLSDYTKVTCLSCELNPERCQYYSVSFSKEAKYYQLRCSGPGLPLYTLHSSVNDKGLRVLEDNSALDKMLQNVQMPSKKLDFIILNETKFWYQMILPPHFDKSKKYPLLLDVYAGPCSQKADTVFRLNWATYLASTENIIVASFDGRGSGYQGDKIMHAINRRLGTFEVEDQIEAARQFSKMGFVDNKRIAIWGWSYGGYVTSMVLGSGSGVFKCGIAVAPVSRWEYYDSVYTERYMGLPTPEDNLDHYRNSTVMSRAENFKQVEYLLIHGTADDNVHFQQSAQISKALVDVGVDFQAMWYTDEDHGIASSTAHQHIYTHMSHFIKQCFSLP

N[C@@H](CCN1CCC[C@H]1CNS(=O)(=O)c1ccccc1)Cc1ccccc1F [Example 25] and N#Cc1cccc(S(=O)(=O)NC[C@@H]2CCCN2CC[C@H](N)Cc2ccccc2F)c1 [Example 31] cannot be ordered by IC50: under 100 nM for the first, under 100 nM for the second.

N[C@@H](CCN1Cc2ccccc2C[C@H]1C(=O)NC1CC1)Cc1ccccc1F [Example 26] and N[C@@H](CCN1Cc2ccccc2C[C@H]1CNC(=O)C1CC1)Cc1ccccc1F [Example 28] fall in the same range of IC50: 101 to 1000 nM for the first, 101 to 1000 nM for the second.

N[C@@H](CCN1CCC[C@H]1CNC(=O)C1CC1)Cc1ccccc1F [Example 27, Cyclopropanecarboxylic acid {1-[(3R)-amino-4-(2-fluoro-phenyl)-butyl]-pyrrolidin-(2S)-ylmethyl}-amide] and N[C@@H](CCN1CCC[C@H]1CNS(=O)(=O)C1CC1)Cc1ccccc1F [Example 29] cannot be ordered by IC50: under 100 nM for the first, under 100 nM for the second.

CS(=O)(=O)NC[C@@H]1CCCN1CC[C@H](N)Cc1ccccc1F [Example 30] and N[C@@H](CCN1CCC[C@H]1CNS(=O)(=O)CC(F)(F)F)Cc1ccccc1F [Example 33] cannot be ordered by IC50: under 100 nM for the first, under 100 nM for the second.

N[C@@H](CCN1CCOCC1CNS(=O)(=O)C1CC1)Cc1ccccc1F (some centres unmarked) [Example 35] and COC[C@@H]1CCCN1CC[C@H](N)Cc1ccccc1F [Example 48] fall in the same range of IC50: 101 to 1000 nM for the first, 101 to 1000 nM for the second.

Compared with N[C@@H](CCN1CCC[C@H]1COCc1ccccc1)Cc1ccccc1F [Example 44, (1R)-3-[(2S)-2-Benzyloxymethyl-pyrrolidin-1-yl]-1-(2-fluoro-benzyl)-propylamine], N[C@@H](CCN1CCC[C@H]1COc1cccc(F)c1)Cc1ccccc1F [Example 46] is lower in IC50: 101 to 1000 nM for the first, under 100 nM for the second.

Compared with N[C@@H](CCN1CCC[C@H]1COc1cccc(F)c1)Cc1cccc(Cl)c1 [Example 45, (1R)-(3-Chloro-benzyl)-3-[(2S)-(3-fluoro-phenoxymethyl)-pyrrolidin-1-yl]-propylamine], N[C@@H](CCN1Cc2ccccc2C[C@H]1COc1cccc(F)c1)Cc1ccccc1F [Example 47] is higher in IC50: under 100 nM for the first, 101 to 1000 nM for the second. The first is the more potent here.

From patent US20080176838A1, “Dpp-IV Inhibitors” (SANTHERA PHARMACEUTICALS (DEUTSCHLAND) AG, priority 2004, published 2008)
